Assay results published in patent US20250282812A1, “ANTIVIRAL NUCLEOSIDE ANALOGUE, AND PHARMACEUTICAL COMPOSITION AND USE THEREOF” (SHANGHAI INSTITUTE OF MATERIA MEDICA , CHINESE ACADEMY OF …, priority 2022, published 2025).
In brackets after ≈: the same amount, converted by molar mass.

Tests used:
SFTSV-Nluc [1] = assay: microbe, parasite or virus in culture; assay type: cell-based, severe fever with thrombocytopenia syndrome virus (SFTSV); conditions: Severe fever with thrombocytopenia syndrome virus, Vero, 48 h; for inhibition at 10 µM: read-out: Inhibition rate (10 μM)
in vitro = conditions: dog
[2] = test system: respiratory syncytial virus (RSV) A long strain; assay: In vitro activity against respiratory syncytial virus (CPE, CCK8, HEp-2 cells); assay type: cell-based; conditions: human respiratory syncytial virus, 120 h, MOI=0.02, 5 days
[3] = Cytotoxicity in HEp-2 cells (CCK8); conditions: human
[4] = Stability test of compounds in solutions at different pH values
[5] = test system: influenza virus (IFV) A/California/07/2009 (H1N1) pdm09 strain; assay: In vitro activity against influenza virus (CPE, CCK8, MDCK cells); assay type: cell-based; conditions: 120 h, read-out: IFV (MDCK) EC50
[6] = Solubility of compounds in water; conditions: thermodynamic from solid
[7] = test system: influenza virus Influenza A/PR/8/34 (PR8); assay: In vivo efficacy for influenza virus in mice; set-up: species or system Balb/C mice; conditions: […]; intragastric once daily Day 0-3; X219 hydrochloride 10, 20 and 30 mpk; favipiravir 200 mpk
SFTSV-Nluc [8] = test system: SFTSV-Nluc; set-up: species or system A129 mice; conditions: mouse
[9] = buffered saline solution pH 4.0, 3 h
[10] = buffered saline solution pH 4.0, 6 h
[11] = buffered saline solution pH 4.0, 9 h
[12] = buffered saline solution pH 4.0, 12 h
[13] = buffered saline solution pH 4.0, 15 h
[14] = buffered saline solution pH 4.0, 18 h
[15] = buffered saline solution pH 4.0, 21 h
[16] = buffered saline solution pH 4.0, 24 h
[17] = buffered saline solution pH 6.8, 3 h
[18] = buffered saline solution pH 6.8, 6 h
[19] = buffered saline solution pH 6.8, 9 h
[20] = buffered saline solution pH 6.8, 12 h
[21] = buffered saline solution pH 6.8, 15 h
[22] = buffered saline solution pH 6.8, 18 h
[23] = buffered saline solution pH 6.8, 21 h
[24] = buffered saline solution pH 6.8, 24 h

CC(C)C(=O)OCn1c(=O)ccn([C@@H]2O[C@](F)(COC(=O)C(C)C)[C@@H](O)[C@H]2O)c1=O [Compound X51]
EC50 (SFTSV-Nluc [1]): 430 nM
inhibition at 10 µM (SFTSV-Nluc [1]): 94.1%
CC50 (in vitro): > 10000 nM
EC50 [2]: 2150 nM
CC50 at 5 days [3]: > 10000 nM
Content reduction (%) [4, 9]: 1.6%
Content reduction (%) [4, 10]: 2.5%
Content reduction (%) [4, 11]: 3.1%
Content reduction (%) [4, 12]: 3.4%
Content reduction (%) [4, 13]: 3.9%
Content reduction (%) [4, 14]: 4.6%
Content reduction (%) [4, 15]: 5.2%
Content reduction (%) [4, 16]: 5.6%
Content reduction (%) [4, 17]: 1.1%
Content reduction (%) [4, 18]: 2.0%
Content reduction (%) [4, 19]: 3.0%
Content reduction (%) [4, 20]: 3.8%
Content reduction (%) [4, 21]: 4.7%
Content reduction (%) [4, 22]: 5.6%
Content reduction (%) [4, 23]: 6.5%
Content reduction (%) [4, 24]: 7.4%
EC50 [5]: < 370 nM

CCC(CC)C(=O)OCn1c(=O)ccn([C@@H]2O[C@](F)(COC(=O)C(C)C)[C@@H](O)[C@H]2O)c1=O [Compound X52]
CC50 (in vitro): > 10000 nM
EC50 [2]: 4850 nM
CC50 at 5 days [3]: > 10000 nM
Content reduction (%) [4, 9]: 0.9%
Content reduction (%) [4, 10]: 1.4%
Content reduction (%) [4, 11]: 1.9%
Content reduction (%) [4, 12]: 2.2%
Content reduction (%) [4, 13]: 2.6%
Content reduction (%) [4, 14]: 3.0%
Content reduction (%) [4, 15]: 3.4%
Content reduction (%) [4, 16]: 3.6%
Content reduction (%) [4, 17]: 1.2%
Content reduction (%) [4, 18]: 2.3%
Content reduction (%) [4, 19]: 3.3%
Content reduction (%) [4, 20]: 4.3%
Content reduction (%) [4, 21]: 5.4%
Content reduction (%) [4, 22]: 6.6%
Content reduction (%) [4, 23]: 7.6%
Content reduction (%) [4, 24]: 8.7%
EC50 [5]: 570 nM

CC(C)C(=O)OC[C@@]1(F)O[C@@H](n2ccc(=O)n(COC(=O)C3CCCCC3)c2=O)[C@H](O)[C@@H]1O [Compound X55]
EC50 (SFTSV-Nluc [1]): 1040 nM
inhibition at 10 µM (SFTSV-Nluc [1]): 93.6%
CC50 (in vitro): > 10000 nM
EC50 [2]: 1630 nM
CC50 at 5 days [3]: > 10000 nM
Content reduction (%) [4, 9]: 2.4%
Content reduction (%) [4, 10]: 4.9%
Content reduction (%) [4, 11]: 6.9%
Content reduction (%) [4, 12]: 9.0%
Content reduction (%) [4, 13]: 10.8%
Content reduction (%) [4, 14]: 12.7%
Content reduction (%) [4, 15]: 14.2%
Content reduction (%) [4, 16]: 15.4%
Content reduction (%) [4, 17]: 1.0%
Content reduction (%) [4, 18]: 2.3%
Content reduction (%) [4, 19]: 3.3%
Content reduction (%) [4, 20]: 4.4%
Content reduction (%) [4, 21]: 5.4%
Content reduction (%) [4, 22]: 6.4%
Content reduction (%) [4, 23]: 7.7%
EC50 [5]: < 370 nM

CC(C)C(=O)OCn1c(=O)ccn([C@@H]2O[C@](F)(COC(=O)C3CCCCC3)[C@@H](O)[C@H]2O)c1=O [Compound X61]
EC50 (SFTSV-Nluc [1]): 590 nM
inhibition at 10 µM (SFTSV-Nluc [1]): 96.1%
CC50 (in vitro): > 10000 nM
EC50 [2]: 2040 nM
CC50 at 5 days [3]: > 10000 nM
EC50 [5]: < 370 nM

CC(C)C(=O)OCn1c(=O)ccn([C@@H]2O[C@](F)(COC(=O)[C@@H](N)C(C)C)[C@@H](OC(=O)C(C)C)[C@H]2OC(=O)C(C)C)c1=O [Compound X79]
inhibition at 10 µM (SFTSV-Nluc [1]): < 10%
CC50 (in vitro): > 10000 nM
EC50 [2]: 1460 nM
CC50 at 5 days [3]: > 10000 nM
EC50 [5]: 480 nM

CC(C)C(=O)OC[C@@]1(F)O[C@@H](n2ccc(=O)n(COC(=O)[C@@H](N)C(C)C)c2=O)[C@H](OC(=O)C(C)C)[C@@H]1OC(=O)C(C)C [Compound X98]
EC50 (SFTSV-Nluc [1]): 1160 nM
inhibition at 10 µM (SFTSV-Nluc [1]): 95.7%
CC50 (in vitro): > 10000 nM
EC50 [2]: 1420 nM
CC50 at 5 days [3]: > 10000 nM
EC50 [5]: 500 nM

CCCCCCCCCCCC(=O)OCn1c(=O)ccn([C@@H]2O[C@](F)(COC(=O)CCCCCCCCCCC)[C@@H](O)[C@H]2O)c1=O [Compound X199]
EC50 (SFTSV-Nluc [1]): 2790 nM
inhibition at 10 µM (SFTSV-Nluc [1]): 96.1%
CC50 (in vitro): > 10000 nM
EC50 [2]: 460 nM
CC50 at 5 days [3]: > 10000 nM
EC50 [5]: 410 nM

CC(C)C(=O)OC[C@@]1(F)O[C@@H](n2ccc(=O)n(COC(=O)c3cccnc3)c2=O)[C@H](OC(=O)C(C)C)[C@@H]1OC(=O)C(C)C [Compound X206]
EC50 (SFTSV-Nluc [1]): 1730 nM
inhibition at 10 µM (SFTSV-Nluc [1]): 93.7%
CC50 (in vitro): > 10000 nM
EC50 [2]: 2430 nM
CC50 at 5 days [3]: > 10000 nM
Content reduction (%) [4, 9]: 0.01%
Content reduction (%) [4, 10]: 0.03%
Content reduction (%) [4, 11]: 0.02%
Content reduction (%) [4, 12]: 0.03%
Content reduction (%) [4, 13]: 0.03%
Content reduction (%) [4, 14]: 0.01%
Content reduction (%) [4, 15]: 0.03%
Content reduction (%) [4, 16]: 0.0%
Content reduction (%) [4, 17]: 1.93%
Content reduction (%) [4, 18]: 3.09%
Content reduction (%) [4, 19]: 3.84%
Content reduction (%) [4, 20]: 4.06%
Content reduction (%) [4, 21]: 5.72%
Content reduction (%) [4, 22]: 6.34%
Content reduction (%) [4, 23]: 7.28%
Content reduction (%) [4, 24]: 8.16%
EC50 [5]: 380 nM

CC(C)C(=O)OC[C@@]1(F)O[C@@H](n2ccc(=O)n(COC(=O)c3cccnc3)c2=O)[C@H](O)[C@@H]1O [Compound X207]
EC50 (SFTSV-Nluc [1]): 1890 nM
inhibition at 10 µM (SFTSV-Nluc [1]): 91.8%
CC50 (in vitro): > 10000 nM
EC50 [2]: 4090 nM
CC50 at 5 days [3]: > 10000 nM
EC50 [5]: 380 nM

CC(=O)OC[C@@]1(F)O[C@@H](n2ccc(=O)[nH]c2=O)[C@H](OC(C)=O)[C@@H]1OC(C)=O [Compound X219-1]
solubility at 15 min [6]: 150 µg/mL (≈ 386 µM)

CC(C)(C)C(=O)OCn1c(=O)ccn([C@@H]2O[C@](F)(COC(=O)c3cccnc3)[C@@H](O)[C@H]2O)c1=O [Compound X222]
EC50 (SFTSV-Nluc [1]): 3300 nM
inhibition at 10 µM (SFTSV-Nluc [1]): 90.3%
CC50 (in vitro): > 10000 nM
EC50 [2]: 770 nM
CC50 at 5 days [3]: > 10000 nM
EC50 [5]: < 370 nM

CC(=O)O[C@H]1[C@H](n2ccc(=O)[nH]c2=O)O[C@](F)(COC(=O)C(C)C)[C@H]1OC(C)=O [Compound X265-3]
solubility at 15 min [6]: 100 µg/mL (≈ 240 µM)

CC(C)C(=O)OC[C@@]1(F)O[C@@H](n2ccc(=O)n(COC(=O)[C@@H]3CCCN3)c2=O)[C@H](OC(=O)C(C)C)[C@@H]1OC(=O)C(C)C [Compound X266]
EC50 (SFTSV-Nluc [1]): 2070 nM
inhibition at 10 µM (SFTSV-Nluc [1]): 94.6%
CC50 (in vitro): > 10000 nM
EC50 [2]: 1020 nM
CC50 at 5 days [3]: > 10000 nM
EC50 [5]: 894 nM

CC(C)C(=O)OC[C@@]1(F)O[C@@H](n2ccc(=O)n(COC(=O)[C@@H]3CCCN3C)c2=O)[C@H](OC(=O)C(C)C)[C@@H]1OC(=O)C(C)C [Compound X267]
EC50 (SFTSV-Nluc [1]): 2000 nM
inhibition at 10 µM (SFTSV-Nluc [1]): 94.1%
CC50 (in vitro): > 10000 nM
EC50 [2]: 880 nM
CC50 at 5 days [3]: > 10000 nM
EC50 [5]: 500 nM

Br.CC(=O)OC[C@@]1(F)O[C@@H](n2ccc(=O)n(COC(=O)c3cccnc3)c2=O)[C@H](OC(C)=O)[C@@H]1OC(C)=O [X219 hydrobromide]
solubility at 15 min [6]: 17600 µg/mL

Br.CC(=O)O[C@H]1[C@H](n2ccc(=O)n(COC(=O)c3cccnc3)c2=O)O[C@](F)(COC(=O)C(C)C)[C@H]1OC(C)=O [X265 hydrobromide]
solubility at 15 min [6]: 8050 µg/mL

CC(=O)O[C@H]1[C@H](n2ccc(=O)n(COC(=O)c3cccnc3)c2=O)O[C@](F)(COC(=O)C(C)C)[C@H]1OC(C)=O.Cl [X265 hydrochloride]
solubility at 15 min [6]: 19500 µg/mL

NC(=O)c1nc(F)c[nH]c1=O [favipiravir, reference compound]
body weight after 4 days of infection compared with the initial body weight [7]: did not change significantly
in vivo fluorescence imaging, fluorescence intensity on ventral and dorsal side (SFTSV-Nluc [8]): weak fluorescence intensity
